The values below come from US20020028938A1, “Prostaglandin endoperoxide H synthase biosynthesis inhibitors” (priority 1997, published 2002).

Series [1] has as its target T1, recombinant human Cox-1 (r-hu Cox1) (Homo sapiens, UniProt P23219).
T1 construct: made in house; host or cells: baculovirus/Sf9 insect cells (microsomes)
Nature of the series: Recombinant human PGHS-1 enzyme assay (RHUCX1). Format: biochemical. The conditions noted are these: for inhibition at 100 µM / inhibition at 10 µM: read-out: RHUCX1 % Inh. at Dose; for inhibition at 100 µM / RHUCX1 % Inh. at Dose (μM): 100 μM. In short, it runs like this:
(§1)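 PGE2 formed with and without drug quantified by EIA against matrix-matched standards; percent inhibition relative to control mean, IC50 by linear regression.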

In series [2] the target is T2, recombinant human Cox-2 (r-hu Cox-2) (Homo sapiens, UniProt P35354).
T2 construct: made in house; host or cells: baculovirus/Sf9 insect cells (microsomes)
T2 sequence (P35354 18-604): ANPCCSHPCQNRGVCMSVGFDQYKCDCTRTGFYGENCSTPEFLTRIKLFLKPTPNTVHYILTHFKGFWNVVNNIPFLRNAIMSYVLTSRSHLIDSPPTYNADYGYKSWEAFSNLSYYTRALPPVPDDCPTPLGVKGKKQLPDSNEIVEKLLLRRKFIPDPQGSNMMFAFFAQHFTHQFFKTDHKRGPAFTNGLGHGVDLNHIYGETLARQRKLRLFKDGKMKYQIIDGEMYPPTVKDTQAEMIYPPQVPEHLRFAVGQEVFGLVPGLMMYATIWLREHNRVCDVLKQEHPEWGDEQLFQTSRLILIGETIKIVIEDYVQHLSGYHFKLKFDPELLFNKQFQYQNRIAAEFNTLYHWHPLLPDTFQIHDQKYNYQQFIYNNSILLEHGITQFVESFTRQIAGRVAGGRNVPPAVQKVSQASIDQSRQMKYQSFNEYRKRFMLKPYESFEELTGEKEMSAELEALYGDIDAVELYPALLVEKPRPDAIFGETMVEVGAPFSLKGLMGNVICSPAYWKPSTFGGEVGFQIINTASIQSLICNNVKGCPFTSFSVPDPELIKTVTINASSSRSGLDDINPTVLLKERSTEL
Nature of the series: Recombinant human PGHS-2 enzyme assay (RHUCX2). Format: biochemical. The note with it: for pIC50: read-out: RHUCX2 IC50 (parenthetical value); for inhibition at 0.01 µM / inhibition at 0.1 µM / inhibition at 1 µM: read-out: RHUCX2 % Inh. at Dose. Summed up:
as §1

Series [3] has as its target T3, Human Whole Platelet Cyclooxygenase-1 (Homo sapiens, UniProt P23219).
T3 construct: from tissue; host or cells: human blood: isolated platelets (A4) or heparinised whole blood (A9)
Nature of the series: Human Whole Platelet Cyclooxygenase-1 assay (HWPX). Format: cell-based. The note with it: for pIC50: read-out: HWPX IC50 (parenthetical value). In short, it runs like this: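 Washed platelets from healthy-donor ACD blood were pre-incubated with compound for 10 min, then stimulated with calcium ionophore A23187 (8.8 μM final) for 10 min. Reaction stopped with cold 6 mM EDTA; thromboxane in supernatants quantified with a commercial kit.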

Series [4] concerns air pouch prostaglandin biosynthesis (Cox-2). Put plainly: Carrageenan induced air pouch prostaglandin biosynthesis model (CAP). The series is classed as in vivo, rat. The conditions noted are these: for inhibition in vivo at 3 mg/kg: 4 h, read-out: CAP % Inhib. @ 3 mpk; for inhibition in vivo at 3 mg/kg / CAP % Inhib. @ 3 mpk: 3 mpk, rat. As for the experimental part:
To compare the mean responses of the treatment groups, analysis of variance was applied. Percent inhibition values were determined by comparing the individual treatment mean values to the mean of the control group. Linear regression was used to estimate IC50's/ED50's in appropriate assays.
Carrageenan induced air pouch prostaglandin biosynthesis model (CAP) Air pouches are formed in the backs of male Sprague Dawley rats by injecting 20 mL of sterile air on day 0. Three days later the pouch was reinflated with an additional 10 mL of sterile air. On day 7, 1 mL of saline containing 0.2 % lambda carrageenan (Sigma Chemical Co.) is injected into the pouch to induce the inflammatory reaction that is characterized by the release of prostaglandins. Test compounds are dosed at 0.1 to 10 mg/kg 30 minutes prior to carrageenan. Four hours after the carrageenan injection the pouch is lavaged and levels of prostaglandins are determined by enzyme immuno-assay using commercially available kits. […] Values for Cox-2 inhibition that are parenthetical indicate ED50 values.

The target in series [5] is T4, human amnionic whole cell cyclooxygenase-2 (WISH cells) (Homo sapiens, UniProt P35354).
T4 construct: endogenous in cells; host or cells: human amnionic WISH cells, induced with IL-1beta
T4 sequence (P35354 18-604): T2 sequence (P35354 18-604)
Nature of the series: IL-1β induced PGE2 production in WISH cells. The conditions noted are these: for pIC50: read-out: Wish IC50 (parenthetical value). Format: cell-based. In short, it runs like this: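 Confluent (80%) WISH cells were stimulated with 5 ng/ml IL-1β in serum-free Neuman-Tytell medium, with or without test compound in DMSO (0.01% v/v). PGE2 in the culture medium was measured by EIA against standards prepared in the same medium, read by optical density.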

pIC50: −log10 of the molar value.

T3 sequence (P23219 24-599): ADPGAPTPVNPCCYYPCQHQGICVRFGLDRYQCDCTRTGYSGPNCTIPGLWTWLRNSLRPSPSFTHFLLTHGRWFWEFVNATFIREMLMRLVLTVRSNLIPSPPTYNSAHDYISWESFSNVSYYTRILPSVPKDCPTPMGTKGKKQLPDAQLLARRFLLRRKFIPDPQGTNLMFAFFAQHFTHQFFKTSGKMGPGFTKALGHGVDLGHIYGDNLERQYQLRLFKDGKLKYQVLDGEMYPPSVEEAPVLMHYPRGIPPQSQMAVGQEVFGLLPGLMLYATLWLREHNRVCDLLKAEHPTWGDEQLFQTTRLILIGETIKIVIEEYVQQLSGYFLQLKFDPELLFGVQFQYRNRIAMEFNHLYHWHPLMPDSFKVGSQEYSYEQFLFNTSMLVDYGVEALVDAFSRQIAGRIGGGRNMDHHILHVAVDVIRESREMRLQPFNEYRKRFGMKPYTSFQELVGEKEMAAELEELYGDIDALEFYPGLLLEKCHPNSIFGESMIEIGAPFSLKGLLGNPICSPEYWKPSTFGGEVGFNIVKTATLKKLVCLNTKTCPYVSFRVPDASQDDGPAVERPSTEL
T1 sequence (P23219 24-599): as above

In the case of `CC(C)=CCCOc1c(-c2ccc(S(C)(=O)=O)cc2)cnn(-c2ccc(F)c(F)c2)c1=O` [Example 352, 2-(3,4-Difluorophenyl)-4-(4-methyl-3-penten-1-yloxy)-5-[4-(methylsulfonyl)phenyl]-5-3(2H)-pyridazinone], the melting point is 88 to 90 °C. Further, the inhibition at 100 µM in series [1] was found to be 0%. Further, in series [2], the pIC50 was 6.81. The pIC50 in series [3] is 5.26. In addition, in series [4], the inhibition in vivo at 3 mg/kg is 89%. Moreover, the ED50 in series [4] (Rattus norvegicus) is 5 mg/kg.
For the molecule `CS(=O)(=O)c1ccc(-c2cnn(-c3ccc(F)c(Cl)c3)c(=O)c2C2CCCCC2)cc1` [Example 246, 2-(3-Chloro-4-fluorophenyl)-4-cyclohexyl-5-[4-(methylsulfonl)phenyl]-3(2H)-pyridazinone], the inhibition at 100 µM in series [1] amounted to 0%. The pIC50 was 7.27 in series [2] and 7.70 in series [5]. For the same molecule, the inhibition in vivo at 3 mg/kg in series [4] was found to be 48%.
In the case of `CC(C)CCOc1c(-c2ccc(S(N)(=O)=O)cc2)cnn(-c2cccc(Cl)c2)c1=O` [Example 394, 2-(3-Chlorophenyl)-4-(3-methylbutoxy)-5-[4-(aminosulfonyl)phenyl]-3(2H)-pyridazinone], the melting point lay in the range of 137 to 139 °C. Also, in series [1], the inhibition at 10 µM is 38% and the inhibition at 100 µM amounted to 86%. Further, the inhibition at 0.01 µM in series [2] (0.01 μM) was 20%. The inhibition at 0.1 µM in series [2] (0.1 μM) came to 64%. In series [2] (1 μM), the inhibition at 1 µM came to 94%. The pIC50 in series [5] is 7.72. Further, the inhibition in vivo at 3 mg/kg in series [4] was 70%.
Regarding “2-(3-Methyl-2-butenyl)-4-(4-fluorophenyl)-5-[3-fluoro-4-(aminosulfonyl)phenyl]-3(2H)-pyridazinone [Example 123]”, the entries for the “HWPX % Inhib. at Dose (μM)” value in series [3] (0.1 μM) and in series [3] (1 μM) were 29 @ .1% and 90 @ 1%, respectively. Besides, the pIC50 in series [5] was 9.00. For the same molecule, the “CAP % Inhib. @ 3 mpk” value in series [4] was 23%.
Turning to `CS(=O)(=O)c1ccc(-c2cnn(-c3cccc(Cl)c3)c(=O)c2OCCC2CC2)cc1` [Example 419, 2-(3-Chlorophenyl)-4-(2-cyclopropane-1-ethoxy)-5-[4-(methylsulfonyl)phenyl]-3(2H)-pyridazinone], the melting point fell in the range of 124 to 128 °C. In series [1], the inhibition at 100 µM amounted to 12%. Moreover, in series [2], the pIC50 is 7.00. Moreover, the inhibition in vivo at 3 mg/kg in series [4] was determined as 48%.
For the molecule `CC(C)COc1c(-c2ccc(S(C)(=O)=O)cc2)cnn(-c2cccc(Cl)c2)c1=O` [Example 335, 2-(3-Chlorophenyl)-4-(2-methylpropoxy)-5-[4-(methylsulfonyl)phenyl]-3(2H)-pyridazinone], the melting point is 166 to 169 °C. Further, in series [1], the inhibition at 100 µM was determined as 5%. Further, in series [2], the pIC50 is 9.00. Further, the pIC50 in series [5] is 7.64. Also, the inhibition in vivo at 3 mg/kg in series [4] turned out to be 45%.
For `Cc1cc(-c2c(-c3ccc(S(C)(=O)=O)cc3)cnn(-c3ccc(F)cc3)c2=O)ccc1F` [Example 245, 2-(4-Fluorophenyl)-4-(4-fluoro-3-methylphenyl)-5-[4-(methylsulfonyl)phenyl]-3(2H)-pyridazinone], in that order: 245 to 247 °C, 9%, 5.86, 7.34 and 47%.
`NS(=O)(=O)c1ccc(-c2cnn(-c3ccc(F)c(F)c3)c(=O)c2Oc2ccc(F)cc2)cc1F` [Example 407]: the melting point lay within 224 to 226 °C. For the same molecule, in series [1], the inhibition at 100 µM is 32%. Also, the pIC50 in series [2] was 6.77. Moreover, in series [4], the inhibition in vivo at 3 mg/kg worked out at 61%.
On to `CC(C)COc1c(-c2ccc(S(N)(=O)=O)cc2)cnn(-c2cccc(Cl)c2)c1=O` [Example 395, 2-(3-Chlorophenyl)-4-(2-methylpropoxy)-5-[4-(aminosulfonyl)phenyl]-3(2H)-pyridazinone], for which the melting point was 80 to 85 °C. For the same molecule, in series [1], the inhibition at 10 µM came to 35% and the inhibition at 100 µM amounted to 91%. The inhibition at 0.01 µM in series [2] (0.01 μM) stood at 34%. For the same molecule, the inhibition at 0.1 µM in series [2] (0.1 μM) came out at 77%. Besides, the inhibition at 1 µM in series [2] (1 μM) amounted to 93%. Further, in series [4], the inhibition in vivo at 3 mg/kg was found to be 71%.
As for “2-(4-Fluorophenyl)-4-(4-fluorophenoxy)-5-[4-(aminosulfonyl)phenyl]-3(2H)-pyridazinone [Example 385]”, the pIC50 in series [3] is 5.66; in series [5], 7.64. For the same molecule, the “CAP % Inhib. @ 3 mpk” value in series [4] is on record as 65%.
On to “2-(2,3,3-Trifluorophenyl)-4-(4-fluorophenyl)-5-[4-(aminosulfonyl)phenyl]-3(2H)-pyridazinone [Example 450]”, for which the “RHUCX1 % Inh. at Dose (μM)” value in series [1] is reported as 29 @ 100%. Also, the “RHUCX2 % Inh. at Dose (μM)” value in series [2] (0.01 μM) is 22 @ 0.01%; in series [2] (0.1 μM), 40 @ 0.1%; in series [2] (1 μM) it was 87 @ 1%. Also, the pIC50 in series [5] was 7.30. Further, the “CAP % Inhib. @ 3 mpk” value in series [4] worked out at 86%.
On to `NS(=O)(=O)c1ccc(-c2cnn(CC=C(F)F)c(=O)c2-c2ccc(F)cc2)cc1` [Example 143, 2-(3,3-Difluoro-2-propenyl)-4-(4-fluorophenyl)-5-[4-(aminosulfonyl)phenyl]-3(2H)-pyridazinone], for which the melting point was in the range of 191 to 194 °C. In series [1], the inhibition at 10 µM was found to be 43% and the inhibition at 100 µM was 62%. Moreover, in series [2], the pIC50 was 7.12. Besides, the pIC50 in series [5] was 8.15. The inhibition in vivo at 3 mg/kg in series [4] was determined as 59%.
The molecule `CS(=O)(=O)c1ccc(-c2cnn(-c3ccc(F)c(F)c3)c(=O)c2Cc2cccc(F)c2)cc1` [Example 243, 2-(3,4-Difluorophenyl)-4-(3-fluorobenzyl)-5-[4-(methylsulfonyl)phenyl]-3(2H)-pyridazinone] yielded a melting point of 161 to 163 °C. Also, the pIC50 in series [5] is 7.52. For the same molecule, the inhibition in vivo at 3 mg/kg in series [4] is 7%.
For the molecule `CC(C)(O)COc1c(-c2ccc(S(C)(=O)=O)cc2)cnn(-c2ccc(F)c(F)c2)c1=O` [Example 452, 2-(3,4-Difluorophenyl)-4-(2-hydroxy-2-methyl-1-propoxy)-5-[4-(methylsulfonyl)phenyl]-3(2H)-pyrridazinone], in series [1], the “RHUCX1 % Inh. at Dose (μM)” value is recorded as 14 @ 100%. For the same molecule, in series [2] (1 μM), the “RHUCX2 % Inh. at Dose (μM)” value was 15 @ 1%. Moreover, the “Wish % Inhib. at Dose (μM)” value is listed as 1 @ 0.1% in series [5] (0.1 μM) and 56 @ 1% in series [5] (1 μM). Also, the “CAP % Inhib. @ 3 mpk” value in series [4] stood at 71%.
`CC(C)CCc1c(-c2ccc(S(N)(=O)=O)cc2)cnn(-c2ccc(F)c(Cl)c2)c1=O` [Example 405, 2-(3-Chloro-4-fluorophenyl)-4-(3-methylbutyl)-5-[4-(aminosulfonyl)phenyl]-3(2H)-pyridazinone] showed a melting point of 154 to 156 °C. For the same molecule, in series [1], the inhibition at 10 µM amounted to 61% and the inhibition at 100 µM came to 90%. Moreover, in series [2], the pIC50 is 6.70. In addition, the inhibition in vivo at 3 mg/kg in series [4] is 53%.

The pIC50 is −log10 of the IC50, conventionally taken in molar units. One may read the ED50 as the midpoint of the dose-response relation. A high value points to weaker potency. A word on the melting point: it is the temperature of the solid-liquid transition.
